Assay: xn = mol fraction of the nth substance listed

COCCOCCOC + CCCCCCCC
viscosity [mPa·s], 101.33 kPa
Conditions	x1 = 0.0946	x1 = 0.203	x1 = 0.2985	x1 = 0.3956	x1 = 0.4955	x1 = 0.5945	x1 = 0.697	x1 = 0.7972	x1 = 0.8977
298.15 K	0.515	0.535	0.561	0.594	0.636	0.681	0.748	0.807	0.884
303.15 K	0.485	0.503	0.536	0.557	0.593	0.636	0.686	0.746	0.82
308.15 K	0.458	0.475	0.501	0.523	0.556	0.596	0.641	0.695	0.762
313.15 K	0.432	0.448	0.473	0.493	0.524	0.559	0.604	0.65	0.712
318.15 K	0.41	0.425	0.446	0.466	0.493	0.523	0.575	0.61	0.667

ClC(Cl)C(Cl)Cl + CC#N
303.15 K, 101.32 kPa
Conditions	viscosity [mPa·s]
x2 = 0.1125	1.381
x2 = 0.2007	1.315
x2 = 0.2582	1.266
x2 = 0.3568	1.17
x2 = 0.4174	1.103
x2 = 0.4937	1.012
x2 = 0.5964	0.8767
x2 = 0.6989	0.7317
x2 = 0.8504	0.5162
x2 = 0.9233	0.4184

COCCOCCOC + O
Conditions	viscosity [mPa·s]
298.15 K, 101 kPa, x1 = 0.021	1.36
298.15 K, 101 kPa, x1 = 0.04611	2.03
298.15 K, 101 kPa, x1 = 0.08173	2.84
298.15 K, 101 kPa, x1 = 0.135	3.11
298.15 K, 101.32 kPa, x1 = 0.0104	1.16
298.15 K, 101.32 kPa, x1 = 0.0199	1.362
298.15 K, 101.32 kPa, x1 = 0.0677	2.567
298.15 K, 101.32 kPa, x1 = 0.1	2.959
298.15 K, 101.32 kPa, x1 = 0.1492	3.175
298.15 K, 101.32 kPa, x1 = 0.1978	2.936
298.15 K, 101.32 kPa, x1 = 0.2959	2.342
298.15 K, 101.32 kPa, x1 = 0.4011	1.881
298.15 K, 101.32 kPa, x1 = 0.4988	1.552
298.15 K, 101.32 kPa, x1 = 0.577	1.398
298.15 K, 101.32 kPa, x1 = 0.8569	1.084
298.15 K, 101.33 kPa, x1 = 0.0091	1.139
298.15 K, 101.33 kPa, x1 = 0.0188	1.403
298.15 K, 101.33 kPa, x1 = 0.0295	1.691
298.15 K, 101.33 kPa, x1 = 0.051	2.246
298.15 K, 101.33 kPa, x1 = 0.0854	2.993
298.15 K, 101.33 kPa, x1 = 0.1194	3.328
298.15 K, 101.33 kPa, x1 = 0.1604	3.232
298.15 K, 101.33 kPa, x1 = 0.2099	2.993
298.15 K, 101.33 kPa, x1 = 0.2597	2.661
298.15 K, 101.33 kPa, x1 = 0.3028	2.389
298.15 K, 101.33 kPa, x1 = 0.3461	2.153
298.15 K, 101.33 kPa, x1 = 0.3843	1.982
298.15 K, 101.33 kPa, x1 = 0.4327	1.791
298.15 K, 101.33 kPa, x1 = 0.4651	1.691
298.15 K, 101.33 kPa, x1 = 0.5196	1.536
298.15 K, 101.33 kPa, x1 = 0.608	1.356
298.15 K, 101.33 kPa, x1 = 0.659	1.272
298.15 K, 101.33 kPa, x1 = 0.7695	1.145
298.15 K, 101.33 kPa, x1 = 0.8171	1.103
298.15 K, 101.33 kPa, x1 = 0.8712	1.066
298.15 K, 101.33 kPa, x1 = 0.9453	1.024
303.15 K, 101 kPa, x1 = 0.021	1.19
303.15 K, 101 kPa, x1 = 0.04611	1.71
303.15 K, 101 kPa, x1 = 0.08173	2.35
303.15 K, 101 kPa, x1 = 0.135	2.62
313.15 K, 101 kPa, x1 = 0.021	0.94
313.15 K, 101 kPa, x1 = 0.04611	1.27
313.15 K, 101 kPa, x1 = 0.08173	1.75
313.15 K, 101 kPa, x1 = 0.135	1.93
323.15 K, 101 kPa, x1 = 0.021	0.78
323.15 K, 101 kPa, x1 = 0.04611	1.01
323.15 K, 101 kPa, x1 = 0.08173	1.34
323.15 K, 101 kPa, x1 = 0.135	1.46

CCCO + CCO
101 kPa
Conditions	viscosity [mPa·s]
293.15 K, x2 = 0.5	1.564
293.15 K, x2 = 0.75	1.34
298.15 K, x2 = 0.158	1.759
298.15 K, x2 = 0.25	1.64
298.15 K, x2 = 0.303	1.64
298.15 K, x2 = 0.439	1.522
298.15 K, x2 = 0.5	1.407
298.15 K, x2 = 0.566	1.408
298.15 K, x2 = 0.684	1.319
298.15 K, x2 = 0.796	1.233
298.15 K, x2 = 0.902	1.169
303.15 K, x2 = 0.25	1.47
303.15 K, x2 = 0.5	1.26
308.15 K, x2 = 0.25	1.314
308.15 K, x2 = 0.5	1.139
308.15 K, x2 = 0.75	0.99
313.15 K, x2 = 0.25	1.183
313.15 K, x2 = 0.5	1.032
313.15 K, x2 = 0.75	0.903
318.15 K, x2 = 0.5	0.938
318.15 K, x2 = 0.75	0.824
323.15 K, x2 = 0.25	0.969
323.15 K, x2 = 0.5	0.854
323.15 K, x2 = 0.75	0.755

CC=CC(=O)O + CC(C)=O
viscosity [mPa·s], 101 kPa
Conditions	x1 = 0.0488	x1 = 0.1	x1 = 0.1504	x1 = 0.1994	x1 = 0.2534	x1 = 0.2705
298.15 K	0.3461	0.3887	0.4349	0.4858	0.5435	0.5686
303.15 K	0.3299	0.3718	0.4141	0.461	0.5149	0.5368
308.15 K	0.3157	0.3531	0.3935	0.4352	0.4883	0.5066
313.15 K	0.3017	0.3379	0.3756	0.4196	0.463	0.4869
323.15 K	0.2771	0.3079	0.342	0.3849	0.4184	0.438

CC[n+]1ccccc1.N#C[N-]C#N + CCCO
Conditions	viscosity [mPa·s]
313.15 K, 100 kPa, x1 = 0.8905	9.945

ClC(Cl)C(Cl)Cl + O=S1(=O)CCCC1
viscosity [mPa·s], 100 kPa
Conditions	x2 = 0.0224	x2 = 0.1377	x2 = 0.2568	x2 = 0.3746	x2 = 0.4803	x2 = 0.5855	x2 = 0.7134	x2 = 0.8418	x2 = 0.9751
303.15 K	1.674	2.8	3.962	5.052	5.983	6.858	7.865	8.855	9.835
308.15 K	1.537	2.519	3.525	4.469	5.292	6.043	6.927	7.779	8.631
313.15 K	1.417	2.285	3.173	4.004	4.72	5.396	6.171	6.937	7.691

From the CheMixHub viscosity set
